Measured values from patent US5821386A (priority 1997, dated 1998).
Values joined by “and” are separate entries in the source; they are usually repeats but may differ in a detail not shown here. Equal entries are not always repeated. “Also recorded” adds a separate entry of the source. Where two headings read alike, the source gives them in different places.

Experiments:
[1] = molecular target: T1, human serotonin transporter (Homo sapiens, UniProt P31645); test: [125I]RTI-55 binding to serotonin transporter, HEK-hSERT cells
T1 construct: expressed in transfected cells; host or cells: HEK cells (HEK-hSERT)
T1 sequence (P31645 whole entry): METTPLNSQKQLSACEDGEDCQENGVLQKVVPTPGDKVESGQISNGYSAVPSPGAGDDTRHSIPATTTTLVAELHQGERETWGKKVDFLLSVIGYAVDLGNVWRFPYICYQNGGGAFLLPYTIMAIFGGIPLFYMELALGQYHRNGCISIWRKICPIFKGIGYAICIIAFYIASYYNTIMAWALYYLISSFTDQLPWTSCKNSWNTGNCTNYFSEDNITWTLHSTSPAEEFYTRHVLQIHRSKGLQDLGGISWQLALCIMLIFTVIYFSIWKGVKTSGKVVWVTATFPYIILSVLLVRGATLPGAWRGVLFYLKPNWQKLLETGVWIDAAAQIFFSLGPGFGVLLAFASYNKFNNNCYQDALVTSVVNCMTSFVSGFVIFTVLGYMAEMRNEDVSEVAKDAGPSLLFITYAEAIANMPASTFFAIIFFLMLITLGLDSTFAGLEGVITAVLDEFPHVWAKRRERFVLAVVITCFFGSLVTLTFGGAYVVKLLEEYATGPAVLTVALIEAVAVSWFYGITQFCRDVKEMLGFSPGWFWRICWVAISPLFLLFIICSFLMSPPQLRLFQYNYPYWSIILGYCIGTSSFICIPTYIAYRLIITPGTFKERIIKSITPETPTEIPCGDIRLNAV

[2] = Dose response study of induced locomotor stimulation (Example 2, Table I); type: in vivo, male Swiss-Webster mice; details: IP; for Maximal Effect Relative to Cocaine / ED50: Table I; for ED50: Mus musculus, 30-60 minutes period, read-out: ED50 (dose producing 1/2 maximal stimulant activity)
[3] = molecular target: T1, human serotonin transporter; test: [3H]serotonin uptake by HEK-hSERT cells; type: cell-based; details: for IC50: Inhibition of 5HT uptake, IC50, HEK-hSERT cells; for 5HT uptake/binding: ratio; for 5HT/DA uptake: selectivity ratio; for inhibition of serotonin reuptake: Example 5
[4] = molecular target: T2, human dopamine transporter (Homo sapiens, UniProt Q01959); test: [3H]dopamine uptake by C6-hDAT cells; details: for IC50: Inhibition of DA uptake, IC50, C6-hDAT cells; for DA uptake/binding: ratio
T2 sequence (Q01959 whole entry): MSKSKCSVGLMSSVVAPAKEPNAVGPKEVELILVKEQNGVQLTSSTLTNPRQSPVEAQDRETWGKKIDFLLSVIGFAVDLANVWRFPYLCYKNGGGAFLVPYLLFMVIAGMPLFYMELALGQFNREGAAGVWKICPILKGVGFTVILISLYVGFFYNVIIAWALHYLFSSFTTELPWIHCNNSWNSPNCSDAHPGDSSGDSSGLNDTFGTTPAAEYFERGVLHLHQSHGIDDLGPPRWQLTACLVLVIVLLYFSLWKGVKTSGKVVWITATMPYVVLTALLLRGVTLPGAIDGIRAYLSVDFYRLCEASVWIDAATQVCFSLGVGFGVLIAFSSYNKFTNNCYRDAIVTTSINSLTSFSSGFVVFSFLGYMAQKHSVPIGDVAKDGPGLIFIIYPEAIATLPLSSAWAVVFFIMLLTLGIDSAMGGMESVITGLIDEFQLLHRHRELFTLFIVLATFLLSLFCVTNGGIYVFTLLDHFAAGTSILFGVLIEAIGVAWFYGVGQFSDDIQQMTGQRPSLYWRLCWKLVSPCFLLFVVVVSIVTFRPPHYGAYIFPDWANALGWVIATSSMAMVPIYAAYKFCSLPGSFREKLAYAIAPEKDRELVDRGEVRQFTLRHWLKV
Procedure: Drugs (10 mM stock solution) were dissolved in DMSO. The final DMSO concentration in the assay is 0.01 percent. Pipetting was performed with a Biomek 2000 robotic work station.
Uptake was initiated with the addition of [3H]DA (20 nM, specific acitivity 20-53 Ci/mmol) in a final volume of 500 μl. Mazindol (5 μM) was used to define nonspecific uptake. Cells were preincubated for 10 minutes, with drug before addition of neurotransmitter. Uptake was terminated after a 2 minute incubation by removing buffer, and the plate was placed on ice and washed twice with 1 ml ice cold phosphate-buffered saline.

[5] = Interaction study: antagonism of cocaine-induced locomotor stimulation (Example 3); details: for effect on the stimulant effect of cocaine (words): IP, 20 mg/kg cocaine, mice; for p, one-way ANOVA, overall effect for treatment groups: log10 horizontal activity counts, 0-30 minutes
[6] = Eight hour time course of locomotor stimulation, cocaine alone and Compound 2 alone (Example 4); details: for p, two-way ANOVA, effect of Treatment: horizontal activity counts/10 min, eight hours; for p, one-way ANOVA, effect of Treatment: log10 horizontal activity counts
[7] = molecular target: T3, human norepinephrine transporter (Homo sapiens, UniProt P23975); test: biochemical; type: binding
T3 construct: expressed in transfected cells; host or cells: HEK cells (HEK-hNET)
T3 sequence (P23975 whole entry): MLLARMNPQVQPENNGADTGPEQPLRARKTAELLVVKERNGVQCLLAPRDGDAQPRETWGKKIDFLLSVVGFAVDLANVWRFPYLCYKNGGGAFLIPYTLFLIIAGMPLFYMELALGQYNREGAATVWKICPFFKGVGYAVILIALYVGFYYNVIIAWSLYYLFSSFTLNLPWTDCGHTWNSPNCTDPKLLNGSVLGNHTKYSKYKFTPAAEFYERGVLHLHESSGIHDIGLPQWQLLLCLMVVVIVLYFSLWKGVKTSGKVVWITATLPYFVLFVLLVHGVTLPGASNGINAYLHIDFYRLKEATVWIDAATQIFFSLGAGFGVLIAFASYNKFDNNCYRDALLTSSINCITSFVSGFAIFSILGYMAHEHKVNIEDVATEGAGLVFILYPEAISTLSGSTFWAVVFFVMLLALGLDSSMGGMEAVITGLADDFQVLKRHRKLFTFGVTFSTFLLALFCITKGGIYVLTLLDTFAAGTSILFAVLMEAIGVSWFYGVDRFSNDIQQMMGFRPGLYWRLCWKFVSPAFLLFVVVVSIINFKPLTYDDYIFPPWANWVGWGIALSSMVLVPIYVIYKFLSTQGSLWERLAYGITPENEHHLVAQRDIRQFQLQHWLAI

[8] = molecular target: T3, human norepinephrine transporter; test: cell-based; type: cell-based
[9] = molecular target: T2, human dopamine transporter; test: [125I]RTI-55 binding to dopamine transporter, C6-hDAT cells; set-up: expressed in transfected cells; host or cells: C6 cells (C6-hDAT); details: read-out: Binding to DA cloned transporter, [I125]RTI-55 Ki
[10] = HEK-hNET cells, read-out: Binding to NE cloned transporter, [I125]RTI-55 Ki
[11] = HEK-hNET cells, read-out: Inhibition of NE uptake, IC50
[12] = human, hek-hnet and c6-hdat cells
[13] = IP, 10, 20 and 40 mg/kg cocaine

Compound	Ki [1]	Maximal Effect Relative to Cocaine [2]	ED50 ([2]; mice)	IC50 [3]	5HT uptake/binding [3]	5HT/DA uptake [3]	IC50 [4]	DA uptake/binding [4]	effect on the stimulant effect of cocaine (words) ([5]; 20 mg/kg)	p, one-way ANOVA, overall effect for treatment groups [5]	IC50 [8, 11]	NE/DA uptake [8, 12]	NE uptake/binding ([8]; human, hek-hnet cells)	Ki [9]	also measured
CCNC1CC(c2ccc(Cl)c(Cl)c2)c2ccccc21 (stereo not shown) [Compound 4]	2 ± 0.8 nM	1.07	3.9 mg/kg	13 ± 4 nM	6.5	0.21	61 ± 12 nM	7.5							
CN(C1CC(c2ccc(Cl)c(Cl)c2)c2ccccc21)C(C)(C)C (stereo not shown) [Compound 7]				> 10000 nM			2700 ± 1500 nM	3.0	Block the Effects of Cocaine in Mice; also recorded: antagonized the stimulant effect of cocaine; also recorded: lock the effects of cocaine in laboratory mice	< 0.5					effect on locomotor activity ([2]; mice): inhibited locomotor activity; also recorded: reducing locomotor activity
CCCN(C)C1CC(c2ccc(Cl)c(Cl)c2)c2ccccc21 (stereo not shown) [Compound 2]	44 ± 6 nM	0.51	5.65 mg/kg	190 nM and 1500 nM			340 nM and 190 nM	1.4 and 1.1	antagonized the stimulant effect of cocaine	> 0.05	640 nM and 420 nM	1.9 and 2.2	1.6	180 ± 100 nM	dose at maximum effect ([6]; Compound 2 IP, 280-310 min): 12.9 mg/kg; maximum effect estimated from fitted dose-response curve ([6]; Compound 2 IP, 280-310 min, vehicle constant 399): 4581 counts/10 min; duration of stimulant effects ([6]; IP, Compound 2, 3 to 30 mg/kg): Up to Seven; p, two-way ANOVA, effect of Treatment [6]: < 0.001; p, one-way ANOVA, effect of Treatment ([6]; 280-310 min): < 0.001; Ki [7, 10]: 400 nM and 260 nM; inhibition of norepinephrine reuptake ([8]; Example 5): reduced inhibition of serotonin and norepinephrine reuptake; inhibition of serotonin reuptake [3]: reduced inhibition of serotonin and norepinephrine reuptake; effect on the stimulant effect of cocaine (words) ([5]; listed as Compounds 2, 20 mg/kg): Block the Effects of Cocaine in Mice
CCN(C)C1CC(c2ccc(Cl)c(Cl)c2)c2ccccc21 (stereo not shown) [Compound 3]		0.93	10.8 mg/kg	24 ± 7 nM	1.5	0.10	270 ± 30 nM	6.9							
CN(C)C1CC(c2ccc(Cl)c(Cl)c2)c2ccccc21 (stereo not shown) [Compound 1]	3.1 ± 1.2 nM	0.82	4.88 mg/kg	6.7 ± 2.2 nM	2.2	0.035	190 ± 20 nM	6.6				0.38	0.19	29 ± 6 nM	Ki ([7]; Binding to NE cloned transporter, [I125]RTI-55 Ki): 370 ± 60 nM; inhibition of norepinephrine reuptake [8]: selectively inhibits serotonin and norepinephrine reuptake; IC50 ([8]; Inhibition of NE uptake, IC50): 72 ± 40 nM; inhibition of serotonin reuptake [3]: selectively inhibits serotonin and norepinephrine reuptake
CN(Cc1ccccc1)C1CC(c2ccc(Cl)c(Cl)c2)c2ccccc21 (stereo not shown) [Compound 10]				3700 ± 1300 nM	21.	6.7	550 ± 200 nM	4.6							
CC(C)N(C)C1CC(c2ccc(Cl)c(Cl)c2)c2ccccc21 (stereo not shown) [Compound 8]							53 ± 1 nM	0.24						220 ± 40 nM	
CC(C)(C)NC1CC(c2ccc(Cl)c(Cl)c2)c2ccccc21 (stereo not shown) [Compound 6]			506 mg/kg	3100 ± 1200 nM	4.2	8.4	370 ± 170 nM	2.8	Block the Effects of Cocaine in Mice; also recorded: antagonized the stimulant effect of cocaine	< 0.5	310 ± 50 nM				NE uptake/binding ([8]; ratio): 2.1; NE/DA uptake ([8]; selectivity ratio): 0.84
CCCNC1CC(c2ccc(Cl)c(Cl)c2)c2ccccc21 (stereo not shown) [Compound 9]	93 ± 9 nM			240 ± 70 nM	2.6	4.7	51 ± 21 nM	1.6			75 ± 35 nM	1.5	0.68	32 ± 6 nM	Ki [7, 10]: 110 ± 50 nM
COC(=O)[C@H]1[C@@H](OC(=O)c2ccccc2)C[C@@H]2CC[C@H]1N2C [cocaine]															time of maximal stimulant effects ([6]; IP, 20 mg/kg cocaine): during the first 30 minutes; duration of stimulant effects [6, 13]: up to 3 hours; onset of stimulant effects [6, 13]: ≤ 10 min; dose at maximum effect ([6]; cocaine IP, first 30 minutes): 18.3 mg/kg; maximum effect estimated from fitted dose-response curve ([6]; cocaine IP, first 30 minutes, vehicle constant 3172): 6059 counts/10 min; p, two-way ANOVA, effect of Treatment [6]: 0.089; p, one-way ANOVA, effect of Treatment ([6]; 0-30 min): < 0.001
